# Molecular target: T1, PD-1/PD-L1 (Homo sapiens, UniProt Q9NZQ7)
# T1 construct: purchased CisBio
# Assay: PD1-PDL1 HTRF assay
# Details: PD-1/PD-L1 homogenous time-resolved fluorescence (HTRF) binding assay; Tag1-PDL1 5 nM, Tag2-PD1 50 nM
# Procedure, shortened: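 Compound (8 concentrations) was preincubated 15 min at room temperature with Tag1-PD-L1 and Tag2-PD-1, added as 5 nM and 50 nM solutions. Eu-labelled anti-Tag1 and XL665-labelled anti-Tag2 were then added for 1 h, and the 665/620 nm ratio (×10^4; excitation 320 nm) was fitted to the Hill equation for IC50.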
# T1 sequence (Q9NZQ7 19-238 limits assumed): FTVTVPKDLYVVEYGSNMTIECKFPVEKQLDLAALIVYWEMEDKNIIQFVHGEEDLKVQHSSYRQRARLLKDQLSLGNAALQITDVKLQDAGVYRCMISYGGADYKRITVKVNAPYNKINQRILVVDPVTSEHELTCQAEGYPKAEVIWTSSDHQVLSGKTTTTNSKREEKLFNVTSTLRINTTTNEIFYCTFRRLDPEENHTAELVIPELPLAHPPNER
row,SMILES,IC50
1,"Cc1c(-c2ccc(CNCCO)cc2)cccc1-c1cccc(-c2ccn3nc(CNC[C@@H]4CCC(=O)N4)nc3c2)c1C [Example 102, (S)-5-((((7-(4″-(((2-hydroxyethyl)amino)methyl)-2,2′-dimethyl-[1,1′:3′,1″-terphenyl]-3-yl)-[1,2,4]triazolo[1,5-a]pyridin-2-yl)methyl)amino)methyl) pyrrolidin-2-one]",10 to 100 nM
2,"Cc1c(NC(=O)c2ccc(CNCCO)cc2)cccc1-c1cccc(-c2ccn3nc(CNC[C@@H]4CCC(=O)N4)nc3c2)c1C [Example 103, (S)—N-(2,2′-dimethyl-3′-(2-((((5-oxopyrrolidin-2-yl)methyl)amino)methyl)-[1,2,4]triazolo[1,5-a]pyridin-7-yl)-[1,1′-biphenyl]-3-yl)-4-(((2-hydroxyethyl)amino)methyl)benzamide]",100 to 1000 nM
3,"OCCNCc1ccc(-c2cccc(-c3cccc(-c4ccn5nc(CNCCO)nc5c4)c3Cl)c2Cl)cc1 [Example 104, 2-(((2′,2″-dichloro-3″-(2-(((2-hydroxyethyl)amino)methyl)-[1,2,4]triazolo[1,5-a]pyridin-7-yl)-[1,1′:3′,1″-terphenyl]-4-yl)methyl)amino)ethan-1-ol]",≤ 10 nM
4,"O=C1CC[C@@H](CNCc2ccc(-c3cccc(-c4cccc(-c5ccn6nc(CNC[C@@H]7CCC(=O)N7)nc6c5)c4Cl)c3Cl)cc2)N1 [Example 105, (S)-5-((((21,2″-dichloro-3″-(2-(((((S)-5-oxopyrrolidin-2-yl)methyl)amino)methyl)-[1,2,4]triazolo[1,5-α]pyridin-7-yl)-[1,1′:3′,1″-terphenyl]-4-yl)methyl)amino)methyl)pyrrolidin-2-one]",≤ 10 nM
5,"CC(C)(CO)NCc1ccc(-c2cccc(-c3cccc(-c4ccn5nc(CNC(C)(C)CO)nc5c4)c3Cl)c2Cl)cc1 [Example 106, 2-(((21,2″-dichloro-3″-(2-(((1-hydroxy-2-methylpropan-2-yl)amino)methyl)-[1,2,4]triazolo[1,5-a]pyridin-7-yl)-[1,1′:3′,1″-terphenyl]-4-yl)methyl)amino)-2-methylpropan-1-ol]",≤ 10 nM
6,"CC(=O)NCCNCc1ccc(-c2cccc(-c3cccc(-c4ccn5nc(CNCCNC(C)=O)nc5c4)c3Cl)c2Cl)cc1 [Example 109, N-(2-(((7-(4″-(((2-acetamidoethyl)amino)methyl)-2,2′-dichloro-[1,1′:3′,1″-terphenyl]-3-yl)-[1,2,4]triazolo[1,5-a]pyridin-2-yl)methyl)amino)ethyl)acetamide]",≤ 10 nM
7,"OCCCNCc1ccc(-c2cccc(-c3cccc(-c4ccn5nc(CNCCCO)nc5c4)c3Cl)c2Cl)cc1 [Example 111, 3-(((2′,2″-dichloro-3″-(2-(((3-hydroxypropyl)amino)methyl)-[1,2,4]triazolo[1,5-a]pyridin-7-yl)-[1,1′:3′,1″-terphenyl]-4-yl)methyl)amino)propan-1-ol]",≤ 10 nM
8,"CC(C)(CO)NCc1ccc(-c2cccc(-c3cccc(-c4ccn5nc(CNCCO)nc5c4)c3Cl)c2Cl)cc1 [Example 112, 2-(((2′,2″-dichloro-3″-(2-(((2-hydroxyethyl)amino)methyl)-[1,2,4]triazolo[1,5-a]pyridin-7-yl)-[1,1′:3′,1″-terphenyl]-4-yl)methyl)amino)-2-methylpropan-1-ol]",10 to 100 nM

# The remaining lines, values ahead:
row,IC50,SMILES
1,≤ 10 nM,"OCCNCc1nc2cc(-c3cccc(-c4cccc(-c5ccc(CN6CCC[C@H]6CO)cc5)c4Cl)c3Cl)ccn2n1 [Example 113, (S)-2-(((7-(2,2′-dichloro-4″-((2-(hydroxymethyl)pyrrolidin-1-yl)methyl)-[1,11:31,1″-terphenyl]-3-yl)-[1,2,4]triazolo[1,5-a]pyridin-2-yl)methyl)amino)ethan-1-ol]"
2,≤ 10 nM,"OCCNCc1nc2cc(-c3cccc(-c4cccc(-c5ccc(CN6CCC[C@@H]6CO)cc5)c4Cl)c3Cl)ccn2n1 [Example 114, (R)-2-(((7-(2,2′-dichloro-4″-((2-(hydroxymethyl)pyrrolidin-1-yl)methyl)-[1,11:3′,1″-terphenyl]-3-yl)-[1,2,4]triazolo [1,5-a]pyridin-2-yl)methyl)amino)ethan-1-ol]"
3,≤ 10 nM,"OCCCNCc1ccc(-c2cccc(-c3cccc(-c4ccn5nc(CNCCO)nc5c4)c3Cl)c2Cl)cc1 [Example 115, 3-(((21,2″-dichloro-3″-(2-(((2-hydroxyethyl)amino)methyl)-[1,2,4]triazolo[1,5-a]pyridin-7-yl)-[1,11:31,1″-terphenyl]-4-yl)methyl)amino)propan-1-ol]"
4,≤ 10 nM,"CC(C)(CO)NCc1nc2cc(-c3cccc(-c4cccc(-c5ccc(CNCCO)cc5)c4Cl)c3Cl)ccn2n1 [Example 116, 2-(((7-(2,2′-dichloro-4″-(((2-hydroxyethyl)amino)methyl)-[1,1′:31,1″-terphenyl]-3-yl)-[1,2,4]triazolo[1,5-a]pyridin-2-yl)methyl)amino)-2-methylpropan-1-ol]"
